Assay results reported in PubChem BioAssay (NCI).
Where “and” joins values, the source holds several entries; their conditions need not be identical. Equal values may be shown once.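 Exposure lasted 48 hours, with cells grown in 96-well plates and compounds tested at five concentrations. Here, GI50 denotes the concentration required for 50% inhibition of growth. Definition used: TGI = concentration required for complete inhibition of growth.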

Legend:
Assay in all cases: DTP human tumour cell line panel, 48 h
DMS 114 small cell lung = system: DMS 114 small cell lung
SK-MEL-2 melanoma = system: SK-MEL-2 melanoma
NCI-H226 lung = system: NCI-H226 lung
SNB-78 CNS = system: SNB-78 CNS
IGROV1 ovarian = system: IGROV1 ovarian
SF-295 CNS = system: SF-295 CNS
NCI-H460 lung = system: NCI-H460 lung
NCI/ADR-RES ovarian = system: NCI/ADR-RES ovarian
MDA-MB-435 = system: MDA-MB-435
T-47D breast = system: T-47D breast

Compound | TGI (DMS 114 small cell lung) [µM] | TGI (SK-MEL-2 melanoma) | TGI (NCI-H226 lung) | TGI (SNB-78 CNS) [µM] | TGI (IGROV1 ovarian) | TGI (SF-295 CNS) | TGI (NCI-H460 lung) | GI50 (NCI/ADR-RES ovarian) | TGI (NCI/ADR-RES ovarian) | GI50 (MDA-MB-435) | TGI (MDA-MB-435) | GI50 (T-47D breast) | TGI (T-47D breast) | GI50 (SK-MEL-2 melanoma) | GI50 (NCI-H226 lung) | GI50 (NCI-H460 lung) | GI50 (IGROV1 ovarian) | GI50 (SF-295 CNS) | GI50 (SNB-78 CNS) [µM]
COc1ccc(N=c2ssc3c(=S)ssc23)cc1 | 26 | > 100 µM | > 100 µM | 99.4 | 26.3 µM | > 100 µM | – | – | – | – | – | – | – | – | – | – | – | – | –
C[C@]12CCC3[C@@H](CC[C@@H]4c5nonc5CC[C@]34C)C1CCC(=O)N2 (some centres undefined) | – | > 100 µM | > 100 µM | > 100 | > 100 µM | > 100 µM | > 100 µM | > 100 µM | > 100 µM | > 100000 nM | > 100 µM | > 100 µM | > 100 µM | – | – | – | – | – | –
CCCCCCc1cc(C(=O)Nc2cccc(C(F)(F)F)c2)nc(N)n1 | > 100 | > 100 µM | > 100 µM | > 100 | > 100 µM | > 100 µM | > 100 µM | – | – | – | – | – | – | – | – | – | – | – | –
CCOC(=O)c1oc2ccc(OC)c3c2c1CCC3 | > 100 | > 100 µM | > 100 µM | > 100 | > 100 µM | > 100 µM | > 100 µM | – | – | – | – | – | – | – | – | – | – | – | –
CC(=O)OC1CCn2nnc(CO[Si](C)(C)C(C)(C)C)c21 (centres undefined) | > 100 | > 100 µM | > 100 µM | – | > 100 µM | > 100 µM | > 100 µM | – | – | – | – | – | – | – | – | – | – | – | –
Brc1cccc(C2SCc3nc4ccccc4n32)c1 (centres undefined) | 35.2 | – | 27 µM | 99.2 | 98.9 µM | 86.3 µM | 99.1 µM | – | – | – | – | – | – | – | – | – | – | – | –
CN(C)CCCN1c2ccccc2CCc2ccc(Cl)cc21 | – | 7.51 µM | 22.5 µM | – | 22 µM | 14.8 µM | 19.1 µM | 3.33 µM | 14.8 µM | 2350 nM | 6.91 µM | 3.26 µM | 10.6 µM | 3.01 µM | 7.22 µM | 4.46 µM | 7.09 µM | 3.51 µM | –
C=C1COC(/C=C(\C)CC/C=C(\C)CCl)C1 (centres undefined) | > 100 | > 100 µM | > 100 µM | > 100 | > 100 µM | > 100 µM | > 100 µM | – | – | – | – | – | – | – | – | – | – | – | –
N#CC(C(=O)CCC(=O)Nc1cccc(Cl)c1)c1ccccc1 (centres undefined) | > 100 | > 100 µM | > 100 µM | > 100 | > 100 µM | > 100 µM | > 100 µM | – | – | – | – | – | – | – | – | – | – | – | –
CC1=C(CCC(C)N(C)Cc2ccc(OCCCN3CCCC3)cc2)C(C)(C)CCC1 (centres undefined) | – | 7.49 µM | 37.3 µM | – | 16.6 µM | 4.09 µM | 8.81 µM | 10.4 µM | 25 µM | 1430 nM | 2.85 µM | 1.72 µM | 4.97 µM | 2.96 µM | 18.8 µM | 3.02 µM | 4.03 µM | 1.89 µM | –
COc1ccc(C(OCC2OC(n3ccc(NC(=O)c4ccccc4)nc3=O)C(O)C2O)(c2ccccc2)c2ccccc2)cc1 (centres undefined) | – | 6.68 µM | 7.87 µM | – | 3.86 µM | 3.49 µM | 4.02 µM | – | 4.89 µM | – | 5.73 µM | – | 9.42 µM | – | – | – | – | – | –
CCOC(=O)C(=O)Nc1c(CC)cccc1C(C)C | – | > 100 µM | > 100 µM | > 100 | > 100 µM | > 100 µM | > 100 µM | – | – | – | – | – | – | – | – | – | – | – | –
Cc1ccc(C2=NOC3=c4ccccc4=CSC3=C2c2ccc([N+](=O)[O-])cc2)cc1 | – | > 100 µM | 34 µM | – | > 100 µM | 49.9 µM | > 100 µM | 31.4 µM | > 100 µM | 57900 nM | > 100 µM | 5.22 µM | 47.1 µM | 31.5 µM | 14 µM | 16.9 µM | 14.2 µM | 13.3 µM | –
C[Si](C)(C)OC1(C#N)C2C3CC4C2C(=O)C2C4C3C21 (centres undefined) | > 100 | > 100 µM | > 100 µM | > 100 | > 100 µM | – | > 100 µM | – | – | – | – | – | – | – | – | – | – | – | –
O=S(=O)(NCCNC/C=C/c1ccc(Br)cc1)c1cccc2cnccc12 | – | 24.4 µM and 34 µM | 30.7 µM and 34.5 µM | – | 23.2 µM and 26.4 µM | 22.9 µM and 25.1 µM | 26.2 µM and 31.6 µM | 12.3 µM and 14.3 µM | 28.8 µM and 32.3 µM | 9220 nM and 12500 nM | 25.2 µM and 25.6 µM | 3.93 µM and 6.45 µM | 18.4 µM and 26 µM | 11.2 µM and 16.8 µM | 12.3 µM and 13.7 µM | 9.76 µM and 15.4 µM | 6.4 µM and 10.4 µM | 6.47 µM and 11.6 µM | –
Nn1c(-c2ccccc2Cl)nc2ccccc2c1=O | > 100 | > 100 µM | > 100 µM | > 100 | > 100 µM | > 100 µM | > 100 µM | – | – | – | – | – | – | – | – | – | – | – | –
COC1CC(OS(=O)(=O)c2ccc(C)cc2)C(OC(=O)c2ccccc2)C(C)O1 (centres undefined) | > 100 | > 100 µM | > 100 µM | > 100 | > 100 µM | > 100 µM | > 100 µM | – | – | – | – | – | – | > 100 µM | > 100 µM | > 100 µM | > 100 µM | – | > 100
CCC1CN2CCc3cc(OC)c(OC)cc3C2CC1CC1c2cc(OC)c(OC)cc2CCN1C(=O)C1CCCN1C(=O)OCc1ccccc1 (centres undefined) | 26.9 | 33.6 µM | 30.9 µM | 31.2 | 33.4 µM | 30.4 µM | 30.2 µM | – | – | – | – | – | – | – | – | – | – | – | –
COc1ccc(-c2cc(-c3ccccc3)nc(SCCCC(=O)NO)n2)cc1 | – | 9.26 µM | 6.08 µM | – | 3.83 µM | 2.54 µM | 5.65 µM | 0.267 µM | 1.6 µM | 995 nM | 3.11 µM | 0.804 µM | 15.1 µM | 2.3 µM | 1.68 µM | 0.468 µM | 1.11 µM | 0.826 µM | –
Cn1cnc2nc(Cl)nc(NC(C)(C)C(C)(C)O)c21 | > 100 | > 100 µM | > 100 µM | > 100 | > 100 µM | > 100 µM | > 100 µM | – | – | – | – | – | – | – | – | – | – | – | –
O[C@H]1CO[C@H]2[C@@H]1OC[C@@H]2Oc1ccc(Nc2ccnc(Nc3ccc(O[C@H]4CO[C@H]5[C@@H]4OC[C@@H]5O)c(Cl)c3)n2)cc1Cl | – | 5.02 µM | 3.61 µM | – | 6.08 µM | 3.22 µM | 3.05 µM | 5.82 µM | > 100 µM | 2310 nM | 10 µM | 0.456 µM | 2.89 µM | 1.71 µM | 1.48 µM | 1.4 µM | 0.757 µM | 1.65 µM | –
CCOC(=O)C1Oc2ccc([N+](=O)[O-])c3c2C1(O)CCC3 (centres undefined) | > 100 | > 100 µM | > 100 µM | > 100 | > 100 µM | > 100 µM | > 100 µM | – | – | – | – | – | – | – | – | – | – | – | –
